Results reported in patent US12655141B2, “Inhibitors of notch signaling pathway and use thereof in treatment of cancers” (Cellestia Biotech AG, priority 2019, dated 2026).

Columns and labels:
cMYC = experiment: Western blot of RPMI8402 protein lysates: cMYC; type: cell-based, human; settings: NOTCH positive leukemic cells, 1 μM, 24 hours, FIGS. 2 and 3
Protocol: (§1) One million human NOTCH positive T-ALL cell line RPMI8402 were treated with NOTCH targeting compounds at 1 μM concentration for 24 hours. Following treatment cells were harvested and washed with 1×PBS. Total RNA and total protein lysates were extracted as described below.
(§2) Cells were lysed in RIPA buffer (50 mM Tris·Cl, pH 7.5, 150 mM NaCl, 1% nonidet P-40, 0.5% sodium deoxycholate and 0.1% SDS) for 30 minutes at 4° C. Lysed cells were centrifuged to remove the debris at 14000 rpm at 4° C. Supernatant was transferred to a new eppendorf tube. The protein concentration was determined by Bradford assay using spectrophotometer (Ultrospec 3000 pro).
(§3) Initially for western blotting, 40 μg of protein were denatured in 1×SDS gel loading buffer (100 mM Tris·Cl, pH 6.8, 200 mM DTT, 4% SDS, 0.2% bromophenol, 20% glycerol) by heating at 99° C. for 5 minutes. Denatured protein samples were stored on ice until loading on to the acrylamide gel. The samples were run on 8% or 10% acrylamide gel in Tris-glycine electrophoresis buffer (25 mM Tris, 250 mM glycine, 0.1% SDS). Following separation on the acrylamide gel, protein samples were transferred on to PVDF membrane (PEQ lab, catalog number 39-3010) using transfer buffer (39 mM glycine, 48 mM Tris base, 0.037% SDS and 20% methanol).
(§4) For immunoblotting, membranes were blocked with 5% milk and incubated overnight with primary antibodies at 4° C. Membrane were washed with 1×TBST (1×TBS+0.5 tween 20) for 5 minutes (3 times) and incubated with HRP-conjugated secondary antibodies for one hour at room temperature. Signal was detected with Super Signal West chemiluminescent substrate (Thermo Scientific, catalog number 34077).
(§5) Total protein lysates were analysed by western blot analysis using N1-ICD (cleaved and active NOTCH1 Intracellular Domain), cMYC and ACTIN specific antibodies.

[1] = test system: NOTCH positive/driven human T cell acute lymphoblastic leukemia cell line RPMI 8402; experiment: Alamar blue anti-proliferative assay; type: cell-based; settings: Homo sapiens, RPMI 8402, RPMI8402, 72 hours, concentration range 0.01-10 μM
Protocol: Alamarblue® and PrestoBlue proliferation assays were performed to determine the growth kinetics of Notch inhibitor treated cells. Alamar Blue® and PrestoBlue consists of a cell permeable substrate resazurin. In metabolically active and proliferating cells, resazurin is converted to resorufin due to an intrinsic reducing power of live cells and produces a red fluorescence. Therefore production of resorufin serves as an indicator of the viability of the cell population.
Proliferation assays were performed by seeding 5000 cells/well in a 96 well plate. Cells were treated with DMSO or compounds for 72 hours using concentration ranges of 0.01-10 μM. Each concentration was tested in 4 replicates. To determine the growth kinetics, 10 μl of Alamar Blue® or PrestoBlue (Invitrogen) was added to each well and incubated for 4 hours. Readout was taken using Tecan F500 (Tecan) multiplate reader or Varioskan LUX (ThermoFisher) multiplate reader.
In order to determine anti-cancer potency of compounds compared to 6-(4-tert-butylphenoxy)pyridin-3-amine (described in WO2013/093885), NOTCH positive/driven human T cell acute lymphoblastic leukemia cell line RPMI 8402 was treated with selected compounds.

[2] = test system: N1-ICD (cleaved and active NOTCH1 Intracellular Domain); experiment: Western blot of RPMI8402 protein lysates: N1-ICD; type: cell-based, human; settings: NOTCH positive leukemic cells, 1 μM, 24 hours, FIGS. 2 and 3
Protocol: as §1, §2, §3, §4, §5

NOTCH pathway = experiment: Western blot, downregulation of NOTCH pathway (N1-ICD and cMYC), FIG. 2 and 3; type: cell-based, human; settings: RPMI8402, 1 μM, 24 hours
Protocol: NOTCH positive human leukemic RPMI8402 cells were treated with 1 μM of 6-(4-tert-butylphenoxy)pyridin-3-amine and 6-([1,1′-Biphenyl]-4-yloxy)-N-methylpyridin-3-amine for 24 hours. Following treatment, total protein lysates were extracted and protein expression analysed by western blot.
NOTCH positive human leukemic RPMI8402 cells were treated with 1 μM of 6-(4-tert-butylphenoxy)pyridin-3-amine and 6-((4′-Fluoro-[1,1′-biphenyl]-4-yl)oxy)pyridin-3-amine, 6-([1,1′-Biphenyl]-4-yloxy)-4-methylpyridin-3-amine, 6-([1,1′-Biphenyl]-4-yloxy)-2-methylpyridin-3-amine and N-Methyl-6-((6-phenylpyridin-3-yl)oxy)pyridin-3-amine for 24 hours. Following treatment, total protein lysates were extracted and protein expression analysed by western blot.
as §1, §2, §3, §4

Row | SMILES | downregulation of cMYC compared to 6-(4-tert-butylphenoxy)pyridin-3-amine (cMYC) | IC50 [1] | downregulation of N1-ICD compared to 6-(4-tert-butylphenoxy)pyridin-3-amine [2] | potency in downregulating NOTCH pathway compared with 6-(4-tert-butylphenoxy)pyridin-3-amine (NOTCH pathway)
1 | Nc1ccc(Oc2ccc(-c3ccc(F)cc3)cc2)nc1 [Example 10, 6-((4′-Fluoro-[1,1′-biphenyl]-4-yl)oxy)pyridin-3-amine] | stronger downregulation | 0.083 µM | stronger downregulation | enhanced potency
2 | Cc1nc(Oc2ccc(-c3ccccc3)cc2)ccc1N [Example 8, 6-([1,1′-Biphenyl]-4-yloxy)-2-methylpyridin-3-amine] | stronger downregulation | 0.11 µM | stronger downregulation | enhanced potency
3 | CNc1ccc(Oc2ccc(-c3ccccc3)nc2)nc1 [Example 23, N-Methyl-6-((6-phenylpyridin-3-yl)oxy)pyridin-3-amine] | stronger downregulation | 0.5 µM | stronger downregulation | enhanced potency
